Structures can show the parent of a compound that is named as a salt.

The values below come from patent US5149719A, “Composition for transdermal penetration of medicaments” (priority 1990, dated 1992).

For data set [1] the following is noted: for amount of higher alcohol necessary to reach a small permanent visible excess: H^3-mannitol in 30% v/v aqueous ethanol.
Protocol: Trace amounts of H^3 -mannitol were added to 10 ml aliquots of a 33% (v/v) ethanol/water solution. The saturating amount of octanol for this solution was determined to be 45 μl per aliquot. Varying amounts of octanol were added to each aliquot as shown below. The aliquots were warmed and kept at 32° C. until use.
A short description of data set [2]: in vitro. Particulars: guinea pig, Permeability Coefficient (cm/hr) ± SEM, saturated dodecanol, Example 13.

For the compound `CCCCCCCCCCCCCO` [tridecanol], the “amount of higher alcohol necessary to reach a small permanent visible excess” value (shortened to “amount of higher alcohol necessary”) in data set [1] was around 4 mg/mL.
On to `COc1ccc([C@@H]2Sc3ccccc3N(CCN(C)C)C(=O)[C@@H]2OC(C)=O)cc1` [Diltiazem Hydrochloride], for which the Papp at 8 h in data set [2] (20% v/v ethanol) was 0.0336 ×10⁻⁶ cm/s; in data set [2] (30% v/v ethanol), 0.0925 ×10⁻⁶ cm/s; in data set [2] (40% v/v ethanol) it was 0.319 ×10⁻⁶ cm/s; in data set [2] (50% v/v ethanol) it was 0.294 ×10⁻⁶ cm/s; in data set [2] (no ethanol), 0.00764 ×10⁻⁶ cm/s.
Take `CCCCCCCCCCCCCCCCCCO` [octadecanol]: the “amount of higher alcohol necessary” value in data set [1] was around 0.1 mg/mL.
As to `CCCCCCCCCCCCCCO` [tetradecanol], in data set [1], the “amount of higher alcohol necessary” value is around 4 mg/mL.
On the same count and under the same terms, in the case of `CCCCCCCCCCCCO` [dodecanol] it was around 10 μl/ml.
On to `CCCCCCCCCCCCCCCCO` [hexadecanol], for which the “amount of higher alcohol necessary” value in data set [1] is around 0.1 mg/mL.
Same read-out and setting: in the case of `CCCCCO` [pentanol] it was 100 μl/ml.
Consider `CCCCCCCCO` [octanol], for which, in data set [1] (10 ml aliquots of 33% (v/v) ethanol/water with trace H^3-mannitol), the “saturating amount of octanol” value was determined as 45 μl per aliquot. The “amount of higher alcohol necessary” value in data set [1] is around 20 μl/ml.
For `CCCCCCCCCCO` [decanol], the “amount of higher alcohol necessary” value in data set [1] is on record as around 10 μl/ml.
